{
  "source": "ChEMBL document CHEMBL1133731",
  "about": "“Novel potent ligands for the central nicotinic acetylcholine receptor: synthesis, receptor binding, and 3D-QSAR analysis” (J Med Chem, 2000)",
  "data": [
    {"target": "T1, Neuronal acetylcholine receptor; alpha4/beta2 (Rattus norvegicus, UniProt P09483+P12390)", "T1 sequence (P09483 whole entry)": "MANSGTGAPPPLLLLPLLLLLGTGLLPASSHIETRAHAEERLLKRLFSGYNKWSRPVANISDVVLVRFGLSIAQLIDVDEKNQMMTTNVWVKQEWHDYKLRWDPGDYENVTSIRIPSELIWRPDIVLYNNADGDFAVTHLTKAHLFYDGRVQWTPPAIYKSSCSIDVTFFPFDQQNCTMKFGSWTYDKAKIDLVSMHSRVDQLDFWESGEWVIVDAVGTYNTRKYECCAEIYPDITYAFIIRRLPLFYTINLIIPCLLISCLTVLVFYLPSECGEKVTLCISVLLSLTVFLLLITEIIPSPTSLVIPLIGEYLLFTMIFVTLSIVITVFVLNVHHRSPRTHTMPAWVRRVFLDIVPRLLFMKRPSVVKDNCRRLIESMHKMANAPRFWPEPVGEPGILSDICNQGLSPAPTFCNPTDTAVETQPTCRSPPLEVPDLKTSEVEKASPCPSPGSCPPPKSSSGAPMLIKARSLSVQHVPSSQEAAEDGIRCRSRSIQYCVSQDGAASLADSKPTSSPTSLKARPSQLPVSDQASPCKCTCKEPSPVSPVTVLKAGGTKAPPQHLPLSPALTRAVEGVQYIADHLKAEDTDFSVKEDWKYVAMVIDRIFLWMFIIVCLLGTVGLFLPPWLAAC", "T1 sequence (P12390 whole entry)": "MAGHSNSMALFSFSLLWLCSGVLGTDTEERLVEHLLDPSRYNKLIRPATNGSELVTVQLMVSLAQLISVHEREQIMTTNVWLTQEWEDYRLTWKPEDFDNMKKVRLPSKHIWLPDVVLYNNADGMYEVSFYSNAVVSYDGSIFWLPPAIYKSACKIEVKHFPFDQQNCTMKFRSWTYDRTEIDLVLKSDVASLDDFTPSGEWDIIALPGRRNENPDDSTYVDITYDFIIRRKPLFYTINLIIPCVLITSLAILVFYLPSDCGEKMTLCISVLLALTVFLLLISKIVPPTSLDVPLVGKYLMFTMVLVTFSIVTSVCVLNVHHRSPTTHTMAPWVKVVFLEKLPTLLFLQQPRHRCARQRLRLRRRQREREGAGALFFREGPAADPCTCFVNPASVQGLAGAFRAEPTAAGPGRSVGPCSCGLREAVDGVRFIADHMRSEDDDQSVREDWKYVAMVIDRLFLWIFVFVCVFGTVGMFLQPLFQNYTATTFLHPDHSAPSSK", "assay": "(§1) In vitro binding affinity for Nicotinic acetylcholine receptor alpha4-beta2 in rat cerebral cortical membrane using [3H]cytisine as radioligand", "format": "cell membranes", "conditions": "not given", "units": {"IC50": "nM"}, "values": [
      {"molecule": "c1cncc(OC[C@@H]2CCN2)c1", "IC50": 1.5}
    ]},
    {"target": "T1, Neuronal acetylcholine receptor; alpha4/beta2", "assay": "as §1", "format": "cell membranes", "conditions": "read-out: IC50", "units": {"IC50": "nM"}, "values": [
      {"molecule": "c1cncc(OC2CCNC2)c1", "note": "(configuration not stated)", "IC50": 100},
      {"molecule": "c1ccc(Sc2cncc(N3CCCNCC3)c2)cc1", "IC50": 4},
      {"molecule": "C1=C(c2cccnc2)CC2CCC1N2", "note": "(configuration not stated)", "IC50": 6.7},
      {"molecule": "c1ccc2nc(-c3cncc(N4CCCNCC4)c3)ccc2c1", "IC50": 6.6},
      {"molecule": "c1cncc(-c2cncc(N3CCCNCC3)c2)c1", "IC50": 2.8},
      {"molecule": "COc1cc(N2CCCNCC2)cnc1OC", "IC50": 170},
      {"molecule": "NC(=O)c1cncc(N2CCCNCC2)c1", "IC50": 20},
      {"molecule": "COc1ccc(N2CCCNCC2)cn1", "IC50": 170},
      {"molecule": "CCSc1ccc(N2CCCNCC2)cn1", "IC50": 170},
      {"molecule": "Nc1cccc(-c2cncc(N3CCCNCC3)c2)c1", "IC50": 4},
      {"molecule": "COc1cncc(N2CCCNCC2)c1", "IC50": 1.9},
      {"molecule": "Oc1cncc(N2CCCNCC2)c1", "IC50": 2.4},
      {"molecule": "COCCOc1cncc(N2CCCNCC2)c1", "IC50": 2.4},
      {"molecule": "C1=CC(CSc2cncc(N3CCCNCC3)c2)C=C1", "IC50": 8},
      {"molecule": "OCCOc1cncc(N2CCCNCC2)c1", "IC50": 1.8},
      {"molecule": "CC(C)COc1cncc(N2CCCNCC2)c1", "IC50": 2.2},
      {"molecule": "Clc1cncc(OC2CCNC2)c1", "note": "(configuration not stated)", "IC50": 220},
      {"molecule": "c1cncc(OC2CCCNC2)c1", "note": "(configuration not stated)", "IC50": 190}
    ]},
    {"target": "T1, Neuronal acetylcholine receptor; alpha4/beta2", "assay": "In vitro binding affinity for Nicotinic acetylcholine receptor alpha4-beta2 (alpha4 beta-2 subtype of nAChRs) in rat cerebral cortical membrane using [3H]-cytisine as radioligand", "format": "cell membranes", "conditions": "not given", "units": {"IC50": "nM"}, "values": [
      {"molecule": "COc1cc(N2CCCNCC2)cnc1Cl", "IC50": 0.68},
      {"molecule": "C=COc1cncc(N2CCCNCC2)c1", "IC50": 5},
      {"molecule": "CCOc1cc(N2CCCNCC2)cnc1Br", "IC50": 0.87}
    ]}
  ]
}
